{"source": "patent US4508663A", "about": "“Process for preparing thiosulfenamide derivatives of N-phosphonomethylglycinonitriles” (Monsanto Company, priority 1983, dated 1985)", "assay_in_all_cases": "post-emergence herbicidal activity, greenhouse", "assay_type_in_all_cases": "in vivo", "key": {"Yellow Nutsedge": {"test_system": "Yellow Nutsedge", "conditions": "Table I", "text": "(§1) A good grade of top soil is placed in aluminum pans having holes in the bottom and compacted to a depth of 0.95 to 1.27 cm. from the top of the pan. A predetermined number of seeds of each of several dicotyledonous and monocotyledonous annual plant species and/or vegetative propagules for the perennial plant species are placed on the soil and pressed into the soil surface. The seeds and/or vegetative propagules are covered with soil and leveled. The pans are then placed on a sand bench in the greenhouse and watered from below as needed. After the plants reach the desired age (two to three weeks), each pan except for the control pans is removed individually to a spraying chamber and sprayed by means of an atomizer operating at a positive air pressure of approximately 1.46 kg/cm^2 absolute. The atomizer contains 6 ml. of a solution or suspension of the chemical. In that 6 ml., is an amount of a cyclohexanone emulsifying agent mixture to give a spray solution or suspension which contains about 0.4% by weight of the emulsifier. The spray solution or suspension contains a sufficient amount of the candidate chemical in order to give application rates corresponding to those set forth in the tables. The spray solution is prepared by taking an aliquot of a 1.0% by weight stock solution or suspension of the candidate chemical in an organic solvent such as acetone or tetrahydrofuran or in water. The emulsifying agent employed is a mixture comprising 35 weight percent butylamine dodecylbenzene sulfonate and 65 weight percent of a tall oil ethylene oxide condensate having about 11 moles of ethylene oxide per mole of tall oil. The pans are returned to the greenhouse and watered as before and the injury to the plants as compared to the control is observed at approximately two and four weeks as indicated in the tables under WAT and the results recorded. In some instances, the two-week observations are omitted.\n(§2) The post-emergence herbicidal activity index used in Table I is as follows: […]"}, "Wild Buckwheat": {"test_system": "Wild Buckwheat", "conditions": "Table II, 2 WAT", "text": "as §1, §2"}, "Rice": {"test_system": "Rice", "conditions": "Table II, 2 WAT", "text": "as §1, §2"}, "Panicum Spp": {"test_system": "Panicum Spp", "conditions": "Table II, 2 WAT", "text": "as §1, §2"}, "Sorghum": {"test_system": "Sorghum", "conditions": "Table II, 2 WAT", "text": "as §1, §2"}, "Downy Brome": {"test_system": "Downy Brome", "text": "as §1, §2"}, "Morningglory": {"test_system": "Morningglory", "text": "as §1, §2"}, "Wheat": {"test_system": "Wheat", "conditions": "Table II, 2 WAT", "text": "as §1, §2"}, "Smartweed": {"test_system": "Smartweed", "text": "as §1, §2"}, "Sugar Beet": {"test_system": "Sugar Beet", "conditions": "Table II, 2 WAT", "text": "as §1, §2"}, "Johnsongrass": {"test_system": "Johnsongrass", "conditions": "Table I", "text": "as §1, §2"}, "Crabgrass": {"test_system": "Crabgrass", "conditions": "Table II, 2 WAT", "text": "as §1, §2"}, "Velvetleaf": {"test_system": "Velvetleaf", "text": "as §1, §2"}, "Hemp Sesbania": {"test_system": "Hemp Sesbania", "conditions": "Table II, 2 WAT", "text": "as §1, §2"}, "Barnyardgrass": {"test_system": "Barnyardgrass", "text": "as §1, §2"}, "Cocklebur": {"test_system": "Cocklebur", "text": "as §1, §2"}, "Lambsquarters": {"test_system": "Lambsquarters", "text": "as §1, §2"}, "Soybean": {"test_system": "Soybean", "conditions": "Table II, 2 WAT", "text": "as §1, §2"}, "Quackgrass": {"test_system": "Quackgrass", "conditions": "Table I", "text": "as §1, §2"}}}
{"smiles": "N#CCN(CP(=O)(Oc1ccccc1)Oc1ccccc1)SSc1ccc2ccccc2c1", "note": "[IX, Phosphonic acid, [[(cyanomethyl)(2-naphthalenyldithio)amino]methyl]-, diphenyl ester]", "values": [{"measurement": "post-emergence herbicidal activity index", "setting": "Yellow Nutsedge; 2 WAT, 5.6 kg/h", "result": "0 (0-24% control)"}, {"measurement": "post-emergence herbicidal activity index", "setting": "Yellow Nutsedge; 4 WAT, 11.2 kg/h", "result": "0 (0-24% control)"}, {"measurement": "post-emergence herbicidal activity index", "setting": "Wild Buckwheat; 0.28 kg/h", "result": "0 (0-24% control)"}, {"measurement": "post-emergence herbicidal activity index", "setting": "Wild Buckwheat; 1.12 kg/h", "result": "0 (0-24% control)"}, {"measurement": "post-emergence herbicidal activity index", "setting": "Wild Buckwheat; 5.6 kg/h", "result": "1 (25-49% control)"}, {"measurement": "post-emergence herbicidal activity index", "setting": "Rice; 0.28 kg/h", "result": "0 (0-24% control)"}, {"measurement": "post-emergence herbicidal activity index", "setting": "Rice; 1.12 kg/h", "result": "0 (0-24% control)"}, {"measurement": "post-emergence herbicidal activity index", "setting": "Rice; 5.6 kg/h", "result": "0 (0-24% control)"}, {"measurement": "post-emergence herbicidal activity index", "setting": "Panicum Spp; 0.28 kg/h", "result": "0 (0-24% control)"}, {"measurement": "post-emergence herbicidal activity index", "setting": "Panicum Spp; 1.12 kg/h", "result": "0 (0-24% control)"}, {"measurement": "post-emergence herbicidal activity index", "setting": "Panicum Spp; 5.6 kg/h", "result": "0 (0-24% control)"}, {"measurement": "post-emergence herbicidal activity index", "setting": "Sorghum; 0.28 kg/h", "result": "0 (0-24% control)"}, {"measurement": "post-emergence herbicidal activity index", "setting": "Sorghum; 1.12 kg/h", "result": "0 (0-24% control)"}, {"measurement": "post-emergence herbicidal activity index", "setting": "Sorghum; 5.6 kg/h", "result": "1 (25-49% control)"}, {"measurement": "post-emergence herbicidal activity index", "setting": "Downy Brome; Table I, 2 WAT, 5.6 kg/h", "result": "0 (0-24% control)"}, {"measurement": "post-emergence herbicidal activity index", "setting": "Downy Brome; Table I, 4 WAT, 11.2 kg/h", "result": "0 (0-24% control)"}, {"measurement": "post-emergence herbicidal activity index", "setting": "Downy Brome; Table II, 2 WAT, 0.28 kg/h", "result": "0 (0-24% control)"}, {"measurement": "post-emergence herbicidal activity index", "setting": "Downy Brome; Table II, 2 WAT, 1.12 kg/h", "result": "0 (0-24% control)"}, {"measurement": "post-emergence herbicidal activity index", "setting": "Downy Brome; Table II, 2 WAT, 5.6 kg/h", "result": "0 (0-24% control)"}, {"measurement": "post-emergence herbicidal activity index", "setting": "Morningglory; Table I, 2 WAT, 5.6 kg/h", "result": "0 (0-24% control)"}, {"measurement": "post-emergence herbicidal activity index", "setting": "Morningglory; Table I, 4 WAT, 11.2 kg/h", "result": "0 (0-24% control)"}, {"measurement": "post-emergence herbicidal activity index", "setting": "Morningglory; Table II, 2 WAT, 0.28 kg/h", "result": "0 (0-24% control)"}, {"measurement": "post-emergence herbicidal activity index", "setting": "Morningglory; Table II, 2 WAT, 1.12 kg/h", "result": "0 (0-24% control)"}, {"measurement": "post-emergence herbicidal activity index", "setting": "Morningglory; Table II, 2 WAT, 5.6 kg/h", "result": "1 (25-49% control)"}, {"measurement": "post-emergence herbicidal activity index", "setting": "Wheat; 0.28 kg/h", "result": "0 (0-24% control)"}, {"measurement": "post-emergence herbicidal activity index", "setting": "Wheat; 1.12 kg/h", "result": "0 (0-24% control)"}, {"measurement": "post-emergence herbicidal activity index", "setting": "Wheat; 5.6 kg/h", "result": "1 (25-49% control)"}, {"measurement": "post-emergence herbicidal activity index", "setting": "Smartweed; Table I, 2 WAT, 5.6 kg/h", "result": "0 (0-24% control)"}, {"measurement": "post-emergence herbicidal activity index", "setting": "Smartweed; Table I, 4 WAT, 11.2 kg/h", "result": "3 (75-99% control)"}, {"measurement": "post-emergence herbicidal activity index", "setting": "Smartweed; Table II, 2 WAT, 0.28 kg/h", "result": "0 (0-24% control)"}, {"measurement": "post-emergence herbicidal activity index", "setting": "Smartweed; Table II, 2 WAT, 1.12 kg/h", "result": "0 (0-24% control)"}, {"measurement": "post-emergence herbicidal activity index", "setting": "Smartweed; Table II, 2 WAT, 5.6 kg/h", "result": "1 (25-49% control)"}, {"measurement": "post-emergence herbicidal activity index", "setting": "Sugar Beet; 0.28 kg/h", "result": "0 (0-24% control)"}, {"measurement": "post-emergence herbicidal activity index", "setting": "Sugar Beet; 1.12 kg/h", "result": "0 (0-24% control)"}, {"measurement": "post-emergence herbicidal activity index", "setting": "Sugar Beet; 5.6 kg/h", "result": "0 (0-24% control)"}, {"measurement": "post-emergence herbicidal activity index", "setting": "Johnsongrass; 2 WAT, 5.6 kg/h", "result": "1 (25-49% control)"}, {"measurement": "post-emergence herbicidal activity index", "setting": "Johnsongrass; 4 WAT, 11.2 kg/h", "result": "1 (25-49% control)"}, {"measurement": "post-emergence herbicidal activity index", "setting": "Crabgrass; 0.28 kg/h", "result": "0 (0-24% control)"}, {"measurement": "post-emergence herbicidal activity index", "setting": "Crabgrass; 1.12 kg/h", "result": "0 (0-24% control)"}, {"measurement": "post-emergence herbicidal activity index", "setting": "Crabgrass; 5.6 kg/h", "result": "2 (50-74% control)"}, {"measurement": "post-emergence herbicidal activity index", "setting": "Velvetleaf; Table I, 2 WAT, 5.6 kg/h", "result": "1 (25-49% control)"}, {"measurement": "post-emergence herbicidal activity index", "setting": "Velvetleaf; Table I, 4 WAT, 11.2 kg/h", "result": "1 (25-49% control)"}, {"measurement": "post-emergence herbicidal activity index", "setting": "Velvetleaf; Table II, 2 WAT, 0.28 kg/h", "result": "0 (0-24% control)"}, {"measurement": "post-emergence herbicidal activity index", "setting": "Velvetleaf; Table II, 2 WAT, 1.12 kg/h", "result": "0 (0-24% control)"}, {"measurement": "post-emergence herbicidal activity index", "setting": "Velvetleaf; Table II, 2 WAT, 5.6 kg/h", "result": "0 (0-24% control)"}, {"measurement": "post-emergence herbicidal activity index", "setting": "Hemp Sesbania; 0.28 kg/h", "result": "0 (0-24% control)"}, {"measurement": "post-emergence herbicidal activity index", "setting": "Hemp Sesbania; 1.12 kg/h", "result": "0 (0-24% control)"}, {"measurement": "post-emergence herbicidal activity index", "setting": "Hemp Sesbania; 5.6 kg/h", "result": "1 (25-49% control)"}, {"measurement": "post-emergence herbicidal activity index", "setting": "Barnyardgrass; Table I, 2 WAT, 5.6 kg/h", "result": "0 (0-24% control)"}, {"measurement": "post-emergence herbicidal activity index", "setting": "Barnyardgrass; Table I, 4 WAT, 11.2 kg/h", "result": "1 (25-49% control)"}, {"measurement": "post-emergence herbicidal activity index", "setting": "Barnyardgrass; Table II, 2 WAT, 0.28 kg/h", "result": "0 (0-24% control)"}, {"measurement": "post-emergence herbicidal activity index", "setting": "Barnyardgrass; Table II, 2 WAT, 1.12 kg/h", "result": "0 (0-24% control)"}, {"measurement": "post-emergence herbicidal activity index", "setting": "Barnyardgrass; Table II, 2 WAT, 5.6 kg/h", "result": "1 (25-49% control)"}, {"measurement": "post-emergence herbicidal activity index", "setting": "Cocklebur; Table I, 2 WAT, 5.6 kg/h", "result": "0 (0-24% control)"}, {"measurement": "post-emergence herbicidal activity index", "setting": "Cocklebur; Table I, 4 WAT, 11.2 kg/h", "result": "1 (25-49% control)"}, {"measurement": "post-emergence herbicidal activity index", "setting": "Cocklebur; Table II, 2 WAT, 0.28 kg/h", "result": "0 (0-24% control)"}, {"measurement": "post-emergence herbicidal activity index", "setting": "Cocklebur; Table II, 2 WAT, 1.12 kg/h", "result": "0 (0-24% control)"}, {"measurement": "post-emergence herbicidal activity index", "setting": "Cocklebur; Table II, 2 WAT, 5.6 kg/h", "result": "1 (25-49% control)"}, {"measurement": "post-emergence herbicidal activity index", "setting": "Lambsquarters; Table I, 2 WAT, 5.6 kg/h", "result": "1 (25-49% control)"}, {"measurement": "post-emergence herbicidal activity index", "setting": "Lambsquarters; Table I, 4 WAT, 11.2 kg/h", "result": "3 (75-99% control)"}, {"measurement": "post-emergence herbicidal activity index", "setting": "Lambsquarters; Table II, 2 WAT, 0.28 kg/h", "result": "0 (0-24% control)"}, {"measurement": "post-emergence herbicidal activity index", "setting": "Lambsquarters; Table II, 2 WAT, 1.12 kg/h", "result": "0 (0-24% control)"}, {"measurement": "post-emergence herbicidal activity index", "setting": "Lambsquarters; Table II, 2 WAT, 5.6 kg/h", "result": "3 (75-99% control)"}, {"measurement": "post-emergence herbicidal activity index", "setting": "Soybean; 0.28 kg/h", "result": "0 (0-24% control)"}, {"measurement": "post-emergence herbicidal activity index", "setting": "Soybean; 1.12 kg/h", "result": "0 (0-24% control)"}, {"measurement": "post-emergence herbicidal activity index", "setting": "Soybean; 5.6 kg/h", "result": "0 (0-24% control)"}, {"measurement": "post-emergence herbicidal activity index", "setting": "Quackgrass; 2 WAT, 5.6 kg/h", "result": "0 (0-24% control)"}, {"measurement": "post-emergence herbicidal activity index", "setting": "Quackgrass; 4 WAT, 11.2 kg/h", "result": "1 (25-49% control)"}]}
